Patent publication US5801222A, “Isolation and structure of the human cancer cell growth inhibitory cyclic octapeptides phakellistatin 10 and 11” (Arizona Board of Regents acting on behalf of Arizona State …, priority 1994, dated 1998)
Residues, ends and D or L forms follow the SMILES beside them.

Columns and labels:
[1] = test system: NCI's 60-cell line human tumor panel; assay: NCI 60-cell line human tumor in vitro screen; format: cell-based; details: 60-cell line panel; 10^-5 M high test concentration, log10 dilutions; 48 hours; read-out: overall panel-averaged GI50 concentration
Source text: The following measures are used to express drug activity by giving the drug dose which reduces cell growth to a specified percentage of growth:
ED50 (P388) and GI50 (HTCL) are the drug doses needed to reduce the percent growth to 50%. There is no mathematical difference between ED50 and GI50, which are both calculated using the same formula. The only difference is historical usage.
Total Growth Inhibition ("TGI") is the drug dose needed to yield zero percent growth, i.e., just as many cells at the end of the experiment as were present in the beginning. Whether just as many cells were killed as were produced (steady state), or no growth occurred (total inhibition), cannot be distinguished. […]
Percent Growths are calculated for each dose. […]
(§1) At the start of an experiment, cells from the in vitro cell cultures are inoculated into the appropriate tubes or microtiter plates. One set of control tubes/plates is immediately counted to determine the number of cells at the start of the experiment. This is the "baseline count", or "Tzero reading". At the end of the experiment (48 hours later) a second set of control tubes/plates is analyzed to determine the "Control Growth" value. The growth (or death) of cells relative to the initial quantity of cells is used to define the "Percent of Growth". […]

[2] = test system: MDA-MB-435 breast cancer cell line; assay: NCI in vitro screen, MDA-MB-435; format: cell-based, human
Source text: (§2) Total Growth Inhibition ("TGI") is the drug dose needed to yield zero percent growth, i.e., just as many cells at the end of the experiment as were present in the beginning. Whether just as many cells were killed as were produced (steady state), or no growth occurred (total inhibition), cannot be distinguished.
(§3) Lethal Concentration 50% ("LC50 ") is the drug concentration which reduces growth to -50%, i.e., removes half of the cells originally present at the beginning of the experiment.
(§4) Each drug is tested at five (5) doses: 100-10-1-0.1-0.01 μg/ml. Percent Growths are calculated for each dose. The two (or three) doses with growth values above, below, (or near to) 50% growth are used to calculate the ED50 /GI50 using a linear regression formula. The log of the dose is used during the regression computation. […]
as §1

breast cancer cell lines = assay: NCI in vitro screen, breast cancer cell lines; format: cell-based, human; details: two breast cancer cell lines
Method: as §2
as §4, with “computation. If no dose yields a growth value under 50%, the results are expressed as: ED50 >(highest dose). If no dose yields growth higher than 50% growth, then ED50 <(lowest dose).” for “computation.”
as §1

CNS cancer cell lines = assay: NCI in vitro screen, CNS cancer cell lines; format: cell-based, human
Method: as §2
as §4, with “computation. If no dose yields a growth value under 50%, the results are expressed as: ED50 >(highest dose). If no dose yields growth higher than 50% growth, then ED50 <(lowest dose).” for “computation.”
as §1

ovarian cancer cell line = assay: NCI in vitro screen, ovarian cancer cell line; format: cell-based, human; details: one ovarian cancer cell line
Method: as §2
as §4, with “computation. If no dose yields a growth value under 50%, the results are expressed as: ED50 >(highest dose). If no dose yields growth higher than 50% growth, then ED50 <(lowest dose).” for “computation.”
as §1

[3] = test system: non-small cell lung cancer cell line; assay: NCI in vitro screen, non-small cell lung cancer cell line; format: cell-based, human; details: one non-small cell lung cancer cell line
Method: as §2
as §4, with “computation. If no dose yields a growth value under 50%, the results are expressed as: ED50 >(highest dose). If no dose yields growth higher than 50% growth, then ED50 <(lowest dose).” for “computation.”
as §1

five other cell lines = assay: NCI in vitro screen, five other cell lines; format: cell-based, human; details: five other cell lines (not named)
Method: as §3
Each drug is tested at five (5) doses: 100-10-1-0.1-0.01 μg/ml. Percent Growths are calculated for each dose. The two (or three) doses with growth values above, below, (or near to) 50% growth are used to calculate the ED50 /GI50 using a linear regression formula. The log of the dose is used during the regression computation. If no dose yields a growth value under 50%, the results are expressed as: ED50 >(highest dose). If no dose yields growth higher than 50% growth, then ED50 <(lowest dose). Similar calculations are performed for the TGI at 0% growth, and at -50% growth for the LC50.
as §1

| Compound | GI50 [1] [µM] | LC50 [2] | Total Growth Inhibition (TGI) (breast cancer cell lines) | Total Growth Inhibition (TGI) (CNS cancer cell lines; one CNS cancer cell line) | Total Growth Inhibition (TGI) (ovarian cancer cell line) | Total Growth Inhibition (TGI) [3] | LC50 (five other cell lines) | Total Growth Inhibition (TGI) (CNS cancer cell lines; two CNS cancer cell lines) |
| --- | --- | --- | --- | --- | --- | --- | --- | --- |
| CC[C@H](C)[C@@H]1NC(=O)[C@H](Cc2ccccc2)NC(=O)[C@@H]2CCCN2C(=O)[C@H](Cc2ccccc2)NC(=O)[C@@H]2CCCN2C(=O)[C@H](CCC(N)=O)NC(=O)[C@@H]2CCCN2C(=O)[C@H](Cc2ccccc2)NC1=O [phakellistatin 11, cyclo-(Pro-Gln-Pro-Phe-Pro-Phe-Ile-Phe)] (cyclo(FIFPQPFP)) | 0.132 | less than 10^-5 M per milliliter | less than 10^-7 M per milliliter | less than 10^-7 M per milliliter | less than 10^-7 M per milliliter | less than 10^-7 M per milliliter | less than 10^-5 M per milliliter |  |
| cyclo-(Pro-Leu-Thr-Pro-Ile-Pro-Trp-Val) (PLTPIPWV; head-to-tail cyclic) [phakellistatin 10, cyclic octapeptide isolated from the marine sponge Phakellia sp] | 0.79 | less than 10^-5 M per milliliter | less than 10^-6 M per milliliter |  |  |  |  | less than 10^-6 M per milliliter |
